Measured values published in patent US20020091131A1, “Epoxysuccinamide derivatives” (priority 1997, published 2002).

Legend:
[1] = tested on: rats grown with low calcium feed (bone resorption); experiment: Bone resorption inhibitory activity by decrease of plasma calcium concentration in rats grown with low calcium feed; format: in vivo, rat; conditions: Wistar rats on low calcium feed, 6 hours after administration, vs non-administration group
Protocol: (1) If rats are grown with low calcium feed, its bone weight decreases. This is because calcium is left from bone by dissolution in blood (i.e., bone resorption) so as to maintain the calcium concentration in blood at a normal level. Therefore, compounds inhibiting bone resorption in the model adopted in this experiment inhibit dissolution of calcium in blood from bone to reduce the plasma calcium concentration. Thus, compounds of the invention were evaluated in their bone resorption inhibitory activity by measuring decrease of plasma calcium concentration in the following experiment (according to J. M. Delaisse et al., Biochem. Biophys. Res. Commun., 125, 441 (1984)
Rats of Wistar strain (age: 5 to 6 weeks) were grown with a low calcium content feed (Ca: 0.02S, available from Oriental Yeast Industries, Co., Ltd.) for one week to give bone resorption-enhanced condition A test compound was dissolved in aqueous 1 nethylcellulose solution (when the test compound was-hydrophobic, Tween 20, nonionic-surfactant, was added), and administered orally to the rat in a dosage of 0.2 mL/100 g (weight of rat) At 6 hours after the administration, blood was taken from tail vein of the rat Then, the plasma calcium concentration was measured by OCPC method,
The plasma calcium concentration decreasing activity (Ca decrease rate) of the test compound was calculated by the following equation:
Ca decrease rate (%)=100×(plasma calcium concentration at 6 hours after administration of test compound)−(plasma calcium concentration at the same time in non-administration group)/(plasma calcium concentration at the same time in non-administration group)

Cathepsin L = target: T1, Cathepsin L (Rattus norvegicus, UniProt P07154); experiment: Cathepsin L inhibitory action (rat liver lysosome fraction, Z-Phe-Arg-MCA, in presence of CA-074); format: biochemical; conditions: pH 5.5, 30° C., with 10^-7 M CA-074, read-out: Cathepsin Inhibition (IC50) Cathepsin L
T1 construct: Thus, a lysosome fraction was obtained; from tissue; host or cells: liver of male Wistar rat, crude lysosome fraction
Protocol: (§1) Male rat of Wistar strain was killed by exsanguination and a ice-chilled physiological saline was introduced into portal vein for circulation Then, its liver was taken out. Thereafter, the following procedures were performed at 4°C.
(§2) The liver was minced by scissors. Five grams of minced liver were homogenized in a Potter type Teflon Homogenizer after addition of 9 volumes of 0.25 M sucrose. The homogenate was centrifuged at 800 G for 10 minutes. The resulting supernatant was further centrifuged at 12,000 G for 20 minutes. The precipitate was homogenized in 25 mL of 0.25 M sucrose, and then centrifuged at 12,000 G for 20 minutes. The resulting precipitate was further homogenized in 10 mL of 0.25 M sucrose. Thus, a lysosome fraction was obtained,
(§3) The lysosome fraction was diluted with 0.25M sucrose containing 0.336 of Triton X-100 for the use in the measurement of cathepsin L activity.
To 0.25 mL of a solution (pH: 5.5) containing 340 mM sodium acetate, 60 mM acetic acid, 4 mM EDTA and 8 mM dithiothreitol were added 0.1mL of the lysosome fraction, 5 μL of the test compound solution, and 0.545 mL of distilled water. The mixture was pre-incubated at 30° C. for 15 minutes. Thereafter, 0.1 mL of 50 μM by carbobenzoxy-L-phenylalanyl-L-arginine-4-methylcoumaryl-7-amide (Z-Phe-Arg-MCA) solution was added, and the reaction was started. The reaction was performed at 30° C. for 20 minutes, and then terminated by addition of 1mL of an aqueous solution (pH. 4.3) containing 100 mM sodium mono-chloroacetate, […] and 70 mM acetic acid The finally obtained solution was subjected to measurement of fluorescence strength (excitation wave-length: 380 nm, emission wavelength: 460 nm.
The Z-Phe-Arg-MCA is also decomposed by cathepsin B which is contained in the lysosome fraction.

Cathepsin B = target: T2, Cathepsin B (Rattus norvegicus, UniProt P00787); experiment: Cathepsin B inhibitory action (lysosome fraction, Z-Arg-Arg-MCA); format: biochemical; conditions: pH 6.0, 30° C., read-out: Cathepsin Inhibition (IC50) Cathepsin B
T2 construct: from tissue; host or cells: liver of male Wistar rat, crude lysosome fraction
Protocol: as §1, §2, §3
To 0.25 mL of a solution (pH: 6.0) containing 352 mM KH2PO4, 48 mM Na2HPO4, 5.32 mM EDTA·2Na and 10 mM L-cysteine were added 0.1 mL of the lysosome fraction, 5 μL of the test compound solution, and 0.545 mL of distilled water. The mixture was pre-incubated at 30° C. for 15 minutes. Thereafter, the reaction was started by the addition of 0.1 mL of a solution of 50 μM carbobenzoxy-L-arginine-L-arginine-4-methylcoumaryl-7-amide (Z-Arg-Arg-MCA, substrate). The reaction was performed at 30° C. for 20 minutes, and then terminated by addition of 1 mL of an aqueous solution (pH: 4.3) containing 100 mM sodium mono-chloroacetate, 30 mM sodium acetate and 70 mM acetic acid. The finally obtained solution was subjected to measurement of fluorescence strength (excitation wavelength: 380 nm, emission wavelength: 460 nm).

ovariectomized rats = experiment: Action on ovariectomized rats (postmenopausal osteoporosis model), bone density by p-QCT; format: in vivo, rat; conditions: ovariectomized SD female rats, 300 mg/kg once a day for 4 weeks; average ± SD; control 543.7 ± 31.4, false operation 658.8 ± 46.3; P < 0.01 vs control
Protocol: The ovariectomized rats were employed as models of postmenopausal osteoporosis, for evaluating the compound of the invention. (2) Experimental Procedures
The ovaries on both sides were removed surgically in SD female rats (age; 13 weeks). From the next day, a test compound (compound of Example 5) was administered at 300 mg/kg to the rats once a day for 4 weeks (administration group: 8 rats). After the last administration was complete, the fourth vertebrae lumbale was taken out, and the total bone density was measured by means of p-QCT (Peripheral Bone Density-Measuring Apparatus) and compared with the bone density of the control group (7 rats). In addition, rats treated by false-operation were also subjected to the same measurement, […]

Rat adjuvant arthritis = experiment: Action on rat adjuvant arthritis (hind paw volume); format: in vivo; conditions: Wistar rats, 300 mg/kg orally once a day for 21 days, untreated hind paw, significant vs control, risk <1%
Protocol: Rat adjuvant arthritis which is considered as a model of rheumatoid arthritis of human being was employed for evaluation of the compound of the invention.
Male rats of Wistar strain (age: 5 weeks) were sensitized by subcutaneous injection of Mycobacterium Butyricum which was suspended in liquid paraffin into the right hind paw. From the next day, a test compound (the compound of the aforementioned Example 5) was orally administered at a dosage of 300 mg/kg once a day for 21 days (administration group: 8 rats). After the last administration was complete, a volume of the untreated hind paw was measured by means of Volume Differential Meter and compared with that of Control group (8 rats, non-administration group) In addition, a non-adjuvant treatment group (normal group: 8 rats) was subjected to the same measurement. Inhibition of expansion of the hind paw by the test compound (Inhibition rate) was calculated by the following equation:
Inhibition rate (%)=100×(administration group−control group)/(normal group−control group)

[2] = Rattus norvegicus, po, 15 mg/kg p.o., read-out: Measured Plasma Ca Concentration (Ca decrease rate)

T2 sequence (P00787 80-333): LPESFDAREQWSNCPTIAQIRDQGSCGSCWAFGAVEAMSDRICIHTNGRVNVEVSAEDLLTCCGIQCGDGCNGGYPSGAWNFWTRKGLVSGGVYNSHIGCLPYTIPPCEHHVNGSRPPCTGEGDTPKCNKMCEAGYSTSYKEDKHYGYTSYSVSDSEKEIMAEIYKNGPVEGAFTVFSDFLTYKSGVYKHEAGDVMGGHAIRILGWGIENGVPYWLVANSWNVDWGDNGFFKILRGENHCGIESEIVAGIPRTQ
T1 sequence (P07154 114-334): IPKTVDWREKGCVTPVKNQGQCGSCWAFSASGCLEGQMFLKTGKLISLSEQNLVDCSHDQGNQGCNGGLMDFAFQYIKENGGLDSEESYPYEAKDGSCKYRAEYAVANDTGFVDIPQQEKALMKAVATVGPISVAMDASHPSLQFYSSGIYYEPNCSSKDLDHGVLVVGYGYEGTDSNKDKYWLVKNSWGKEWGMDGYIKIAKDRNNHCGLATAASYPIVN

Row | SMILES | change in vivo at 15 mg/kg [1, 2] | IC50 (Cathepsin L) | IC50 (Cathepsin B) | other results
1 | CCOC(=O)[C@H]1O[C@@H]1C(=O)N[C@H](COCc1ccccc1)CC(C)C [Example 17, Ethyl (2S,3S)-3-[[1-(S)-benzyloxymethyl-3-methylbutyl]-carbamoyl]oxirane-2-carboxylate] | -15.4% | – | – | –
2 | CO[C@H](c1ccccc1)[C@H](CC(C)C)NC(=O)[C@H]1O[C@@H]1C(=O)O [Example 11, (2S,3S)-3-[[1-(S)-[α-(R)-methoxybenzyl]-3-methylbutyl]-carbamoyl]oxirane-2-carboxylic Acid] | -17.3% | 18 nM | 85 nM | –
3 | CC(C)C[C@@H](CO)NC(=O)[C@H]1O[C@@H]1C(=O)O [Example 12, (2S,3S)-3-[[1-(S)-hydroxymethyl-3-methylbutyl]carbamoyl]-oxirane-2-carboxylic Acid] | – | 94 nM | 100 nM | –
4 | CCOC(=O)[C@H]1O[C@@H]1C(=O)N[C@H](C(=O)c1ccccc1)C(C)C [Example 8, Ethyl (2S,3S)-3-[[1-(S)-benzoyl-2-methylpropyl]-carbamoyl]oxirane-2-carboxylate] | -15.8% | – | – | –
5 | CC(C)C[C@H](NC(=O)[C@H]1O[C@@H]1C(=O)O)[C@H](OCc1ccccc1)c1ccccc1 [Example 22, (2S,3S)-3-[[1-(S)-[α-(R)-(benzyloxy)benzyl]-3-methyl-butyl]carbamoyl]oxirane-2-carboxylic Acid] | – | 3.3 nM | 41 nM | –
6 | CCOC(=O)[C@H]1O[C@@H]1C(=O)N[C@H](COCC(C)C)CC(C)C [Example 18a, Ethyl (2S,3S)-3-[[1-(S)-isobutoxyrethyl-3-methylbutyl]-carbamoyl]oxirane-2-carboxylate] | – | – | – | Measured Plasma Ca Concentration (Ca decrease rate) ([1]; 15 mg/kg p.o.): −24.5%
7 | CC(C)C[C@@H](COCc1ccccc1)NC(=O)[C@H]1O[C@@H]1C(=O)O [Example 24, Sodium (2S,3S)-3-[[1-(S)-benzyloxymethyl-3-methylbutyl]-carbamoyl]oxirane-2-carboxylate] | – | 6.9 nM | 28 nM | –
8 | CC(C)C[C@H](NC(=O)[C@H]1O[C@@H]1C(=O)O)[C@H](O)c1ccccc1 [Example 2, (2S,3S)-3-[[1-(S)-[α-(R)-hydroxybenzyl]-3-methylbutyl]-carbamoyl]oxirane-2-carboxylic acid] | – | 11 nM | 120 nM | –
9 | CCOC(=O)[C@H]1O[C@@H]1C(=O)N[C@@H](CC(C)C)[C@H](OC(C)=O)c1ccccc1 [Example 13, Ethyl (2S,3S)-3-[[1(S)-[α-(R)-acetoxybenzyl]-3-methyl-butyl]carbamoyl]oxirane-2-carboxylate] | -14.7% | – | – | –
10 | CO[C@H](c1ccccc1)[C@H](CC(C)C)NC(=O)[C@H]1O[C@@H]1C(=O)OC(C)C [Example 14, Isopropyl (2S,3S)-3-[[1-(S)-[α-(R)-methoxybenzyl]-3-methylbutyl]carbamoyl]oxirane-2-carboxylate] | – | – | – | change in vivo at 5 mg/kg ([1]; Rattus norvegicus, po, 5 mg/kg p.o., read-out: Measured Plasma Ca Concentration (Ca decrease rate)): -9.9%
11 | CCC(C)[C@H](NC(=O)[C@H]1O[C@@H]1C(=O)O)[C@H](O)c1ccccc1 (stereo partly drawn) [Example 9, (2S,3S)-3-[[1-(S)-[α-(R)-hydroxybenzyl]-2-methylbutyl]carbamoyl]oxirane-2-carboxylic acid] | – | 57 nM | 210 nM | –
12 | O=C(O)[C@H]1O[C@@H]1C(=O)N[C@H](COCc1ccccc1)Cc1ccccc1 [Example 23] | – | 11 nM | – | –
13 | CCOC(=O)[C@H]1O[C@@H]1C(=O)N[C@@H](CC(C)C)[C@H](OC)c1ccccc1 [Example 5, Ethyl (2S,3S)-3-[[1-(S)-[α-(R)-methoxybenzyl]-3-methyl-butyl]carbamoyl]oxirane-2-carboxylate] | -20.4% | – | – | Total bone density of the fourth vertebrae lumbale (ovariectomized rats): 617.8 ± 37.9 mg/mL; Inhibition of expansion of the hind paw (Inhibition rate) (Rat adjuvant arthritis): 42%; melting point: 108 to 109 °C
14 | CCOC(=O)[C@H]1O[C@@H]1C(=O)N[C@@H](CC(C)C)[C@H](O)c1ccccc1 [Example 1a, Ethyl (2S,3S)-3-[[1-(S)-[α-(R)-hydroxybenzyl]-3-methyl-butyl]carbamoyl]oxirane-2-carboxylate] | -12.5% | – | – | –
15 | CCOC(=O)[C@H]1O[C@@H]1C(=O)N[C@@H](CC(C)C)C(=O)c1ccccc1 [Example 7, Ethyl (2S,3S)-3-[[1-(S)-benzoyl-3-methylbutyl]carbamoyl]-oxirane-2-carboxylate] | -13.6% | – | – | –
